{"source": "paper PMC13192270", "about": "“RhlR quorum-sensing receptor ligand sensitivity regulates the differential expression of phenazine genes in Pseudomonas aeruginosa” (Journal of Bacteriology, 2026)", "system": "ΔrhlI strain expressing RhlR A44M", "experiment": "RNA-seq gene expression", "type": "cell-based, Pseudomonas aeruginosa", "design": "opmD Expression value / mexI Expression value / mexH Expression value / mexG Expression value / lasB Expression value / rhlA Expression value / rhlB Expression value / rhlR Expression value / lecB Expression value / fhp Expression value / chiC Expression value / hcnA Expression value / mvfR Expression value / katB Expression value / norC Expression value / norB Expression value / katA Expression value: unit not given here", "settings": "2 µM C4HSL", "procedure": "To determine the effects of hypo- and hypersensitivity to C4HSL on RhlR-dependent transcription activation in P. aeruginosa, we performed RNA-seq on ΔrhlI strains expressing WT RhlR, RhlR T58L, and RhlR A44M in the presence of 2 µM C4HSL. We chose this approach to better control the levels of C4HSL across samples. All gene expression analyses were done relative to a ΔrhlI strain without exogenous supplementation of AHL. Thus, we examined the total increase in C4HSL-dependent gene regulation. We observed increased rhlA RNA levels in strains expressing WT RhlR and the RhlR T58L variant compared to ΔrhlI without C4HSL or a strain expressing the RhlR A44M variant (Table 2; Table S1). […] To corroborate our RNA-seq data, we built an rhlA promoter fusion to mScarlet and assayed reporter levels in the same genetic backgrounds as our transcriptomic experiment (Fig. S7D). Strains expressing hypersensitive RhlR variants produced similar levels of fluorescent signal relative to the WT strain, while a strain expressing a hyposensitive RhlR variant had diminished levels of fluorescent reporter (Fig. S7D).\nA total of […] of overnight cultures was back diluted 1:100 in 20 mL of fresh LB media and incubated for 5 h at 37°C with shaking. Cells were harvested by centrifugation, and pellets were frozen until RNA extraction. RNA was extracted using the Invitrogen PureLink RNA Mini Kit. Pellets were resuspended in 100 µL lysozyme solution containing 10 mM Tris-HCl pH 8.0, 0.1 mM EDTA, and 1 mg/mL lysozyme. Five microliters of 1% SDS was added, and the solution was mixed with a vortex and incubated at room temperature for 5 min. A total of 350 µL lysis buffer (Invitrogen) was added with 10 µL 2-mercaptoethanol for each 1 mL of lysis buffer and vortexed. Cells were lysed by bead beating (BioSpec 0.1 MM Zirconia/Silica Beads) for two rounds of 50 s. Lysed cells were transferred to fresh microcentrifuge tubes with 250 µL of 100% ethanol and mixed with a vortex. Samples were spun in spin cartridges (Invitrogen) at 12,000 × g for 15 s at room temperature, and the flow-through was discarded. A total of 700 µL Wash Buffer I (Invitrogen) was added and spun at 12,000 × g for 15 s at room temperature, and the flow-through was discarded. A total of 500 µL Wash Buffer II (Invitrogen) with ethanol was added and centrifuged for 12,000 × g for 15 s at room temperature; the flow-through was discarded, and RNA samples were washed again. Cells were spun at 12,000 × g for 1 min at room temperature to dry the membrane with the bound RNA. A total of 50 µL RNAse-free water was added to the center of the spin cartridge, incubated at room temperature for 1 min, and centrifuged for 2 min at ≥12,000 × g at room temperature. Extracted RNA was then frozen at −80°C until further use.\nBulk RNA was sent to SeqCenter (Pittsburgh, PA) where it was processed for paired-end Illumina sequencing via rRNA depletion using Ribo-Zero Plus (Illumina). Fastq files generated by SeqCenter were processed using Rockhopper with default settings ([61][–][63]). Briefly, fastq files were aligned to the genome of Pseudomonas aeruginosa UCBPP-PA14. The reads were subsequently normalized using upper-quartile normalization, and transcript abundance was determined by reads per kilobase per million mapped reads. Differential gene expression analysis was conducted using a negative binomial distribution model, outputting a P-value for each transcript. The P-values were then corrected for false discovery using the Benjamini-Hochberg procedure, resulting in the q-values reported here (Table S2). SignalMap v2.0 (NimbleGen Systems) was used to visualize read counts for phzABCDEFG1/2, phzH, phzM, and phzS (Fig. 5). Aligned sequences generated in Rockhopper were converted to GFF files, and genes of interest were isolated into unique GFF files ([37])."}
{"smiles": "CCCC(=O)N[C@H]1CCOC1=O", "note": "[C4HSL, N-butyryl-L-homoserine lactone]", "values": [{"measurement": "chiC Expression value", "result": "132,918.5"}, {"measurement": "fhp Expression value", "result": "8,878"}, {"measurement": "hcnA Expression value", "result": "38,430"}, {"measurement": "katA Expression value", "result": "3,887,333"}, {"measurement": "katB Expression value", "result": "13,211.5"}, {"measurement": "lasB Expression value", "result": "6,614,384"}, {"measurement": "lecB Expression value", "result": "208,420"}, {"measurement": "mexG Expression value", "result": "4,729.5"}, {"measurement": "mexH Expression value", "result": "11,247.5"}, {"measurement": "mexI Expression value", "result": "15,683.5"}, {"measurement": "mvfR Expression value", "result": "214,018"}, {"measurement": "norB Expression value", "result": "28,591"}, {"measurement": "norC Expression value", "result": "12,922.5"}, {"measurement": "opmD Expression value", "result": "6,012"}, {"measurement": "phnA Expression value", "result": "2,884,404"}, {"measurement": "phnB Expression value", "result": "694,083"}, {"measurement": "phzA1 Expression value", "result": "8,661"}, {"measurement": "phzA2 Expression value", "result": "11,533"}, {"measurement": "phzB1 Expression value", "result": "163,479"}, {"measurement": "phzB2 Expression value", "result": "178,704.5"}, {"measurement": "phzC1 Expression value", "result": "135,611.5"}, {"measurement": "phzC2 Expression value", "result": "156,044"}, {"measurement": "phzD1 Expression value", "result": "153,729"}, {"measurement": "phzD2 Expression value", "result": "137,242.5"}, {"measurement": "phzE1 Expression value", "result": "282,659.5"}, {"measurement": "phzE2 Expression value", "result": "202,642.5"}, {"measurement": "phzF1 Expression value", "result": "137,969"}, {"measurement": "phzF2 Expression value", "result": "139,410.5"}, {"measurement": "phzG1 Expression value", "result": "118,586"}, {"measurement": "phzG2 Expression value", "result": "88,845"}, {"measurement": "phzM Expression value", "result": "93,038"}, {"measurement": "phzS Expression value", "result": "303,377"}, {"measurement": "pqsA Expression value", "result": "3,743,059.5"}, {"measurement": "pqsB Expression value", "result": "5,794,985"}, {"measurement": "pqsC Expression value", "result": "5,614,134"}, {"measurement": "pqsD Expression value", "result": "6,055,112.5"}, {"measurement": "pqsE Expression value", "result": "3,188,208"}, {"measurement": "rhlA Expression value", "result": "200,100.5"}, {"measurement": "rhlB Expression value", "result": "165,369.5"}, {"measurement": "rhlR Expression value", "result": "581,659"}, {"measurement": "chiC Log2fold change", "setting": "vs ΔrhlI without AHL", "result": "−0.05904"}, {"measurement": "fhp Log2fold change", "setting": "vs ΔrhlI without AHL", "result": 0.2001}, {"measurement": "hcnA Log2fold change", "setting": "vs ΔrhlI without AHL", "result": 0.2595}, {"measurement": "katA Log2fold change", "setting": "vs ΔrhlI without AHL", "result": 0.3253}, {"measurement": "katB Log2fold change", "setting": "vs ΔrhlI without AHL", "result": 0.1017}, {"measurement": "lasB Log2fold change", "setting": "vs ΔrhlI without AHL", "result": 1.048}, {"measurement": "lecB Log2fold change", "setting": "vs ΔrhlI without AHL", "result": "−0.7762"}, {"measurement": "mexG Log2fold change", "setting": "vs ΔrhlI without AHL", "result": 0.2215}, {"measurement": "mexH Log2fold change", "setting": "vs ΔrhlI without AHL", "result": 0.2256}, {"measurement": "mexI Log2fold change", "setting": "vs ΔrhlI without AHL", "result": "−0.1584"}, {"measurement": "mvfR Log2fold change", "setting": "vs ΔrhlI without AHL", "result": "−0.1373"}, {"measurement": "norB Log2fold change", "setting": "vs ΔrhlI without AHL", "result": "−0.5108"}, {"measurement": "norC Log2fold change", "setting": "vs ΔrhlI without AHL", "result": "−0.6332"}, {"measurement": "opmD Log2fold change", "setting": "vs ΔrhlI without AHL", "result": "−0.2426"}, {"measurement": "phnA Log2fold change", "setting": "vs ΔrhlI without AHL", "result": 0.3171}, {"measurement": "phnB Log2fold change", "setting": "vs ΔrhlI without AHL", "result": 0.2753}, {"measurement": "phzA1 Log2fold change", "setting": "vs ΔrhlI without AHL", "result": "−1.792"}, {"measurement": "phzA2 Log2fold change", "setting": "vs ΔrhlI without AHL", "result": 0.1326}, {"measurement": "phzB1 Log2fold change", "setting": "vs ΔrhlI without AHL", "result": "−1.046"}, {"measurement": "phzB2 Log2fold change", "setting": "vs ΔrhlI without AHL", "result": "−0.2412"}, {"measurement": "phzC1 Log2fold change", "setting": "vs ΔrhlI without AHL", "result": "−0.6965"}, {"measurement": "phzC2 Log2fold change", "setting": "vs ΔrhlI without AHL", "result": "−0.2301"}, {"measurement": "phzD1 Log2fold change", "setting": "vs ΔrhlI without AHL", "result": "−0.5047"}, {"measurement": "phzD2 Log2fold change", "setting": "vs ΔrhlI without AHL", "result": "−0.458"}, {"measurement": "phzE1 Log2fold change", "setting": "vs ΔrhlI without AHL", "result": "−0.5209"}, {"measurement": "phzE2 Log2fold change", "setting": "vs ΔrhlI without AHL", "result": "−0.574"}, {"measurement": "phzF1 Log2fold change", "setting": "vs ΔrhlI without AHL", "result": "−0.731"}, {"measurement": "phzF2 Log2fold change", "setting": "vs ΔrhlI without AHL", "result": "−0.7224"}, {"measurement": "phzG1 Log2fold change", "setting": "vs ΔrhlI without AHL", "result": "−0.7812"}, {"measurement": "phzG2 Log2fold change", "setting": "vs ΔrhlI without AHL", "result": "−0.325"}, {"measurement": "phzM Log2fold change", "setting": "vs ΔrhlI without AHL", "result": "−1.898"}, {"measurement": "phzS Log2fold change", "setting": "vs ΔrhlI without AHL", "result": "−1.303"}, {"measurement": "pqsA Log2fold change", "setting": "vs ΔrhlI without AHL", "result": 0.5012}, {"measurement": "pqsB Log2fold change", "setting": "vs ΔrhlI without AHL", "result": 0.621}, {"measurement": "pqsC Log2fold change", "setting": "vs ΔrhlI without AHL", "result": 0.5508}, {"measurement": "pqsD Log2fold change", "setting": "vs ΔrhlI without AHL", "result": 0.4552}, {"measurement": "pqsE Log2fold change", "setting": "vs ΔrhlI without AHL", "result": 0.3409}, {"measurement": "rhlA Log2fold change", "setting": "vs ΔrhlI without AHL", "result": "−0.336"}, {"measurement": "rhlB Log2fold change", "setting": "vs ΔrhlI without AHL", "result": 0.3232}, {"measurement": "rhlR Log2fold change", "setting": "vs ΔrhlI without AHL", "result": "−0.1335"}]}
